This is an account of results in patent US8415378B2, “Isoxazol-3(2H)-one analogs as therapeutic agents” (AstraZeneca AB, priority 2009, dated 2013).

The IC50 is the concentration needed to halve the response being measured.

Structures are written as SMILES.

T1 sequence (P00747 20-810 limits assumed): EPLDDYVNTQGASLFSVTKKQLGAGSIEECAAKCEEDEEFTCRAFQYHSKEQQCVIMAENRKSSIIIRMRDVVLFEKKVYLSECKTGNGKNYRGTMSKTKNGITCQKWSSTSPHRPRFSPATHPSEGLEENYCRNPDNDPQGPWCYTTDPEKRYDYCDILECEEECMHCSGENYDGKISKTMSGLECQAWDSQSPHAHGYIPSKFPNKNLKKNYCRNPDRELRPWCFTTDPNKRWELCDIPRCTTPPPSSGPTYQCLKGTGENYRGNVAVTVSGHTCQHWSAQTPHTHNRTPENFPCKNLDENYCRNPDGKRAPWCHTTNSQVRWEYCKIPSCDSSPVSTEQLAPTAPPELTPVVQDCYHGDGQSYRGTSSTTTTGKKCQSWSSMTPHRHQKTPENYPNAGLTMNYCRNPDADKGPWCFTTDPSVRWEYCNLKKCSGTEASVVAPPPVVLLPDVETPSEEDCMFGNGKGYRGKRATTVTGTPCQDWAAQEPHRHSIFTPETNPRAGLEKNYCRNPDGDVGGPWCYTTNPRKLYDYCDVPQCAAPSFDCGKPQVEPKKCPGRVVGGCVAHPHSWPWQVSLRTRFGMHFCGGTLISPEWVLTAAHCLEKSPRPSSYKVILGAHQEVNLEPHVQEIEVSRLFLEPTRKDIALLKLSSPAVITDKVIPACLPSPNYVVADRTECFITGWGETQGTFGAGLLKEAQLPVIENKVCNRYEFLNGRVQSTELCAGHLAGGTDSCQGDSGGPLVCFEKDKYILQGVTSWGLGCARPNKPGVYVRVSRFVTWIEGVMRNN

This experiment concerns the target T1, human Glu-plasminogen (Homo sapiens, UniProt P00747).
T1 construct: human Glu-plasminogen; purchased Chromogenix, Italy
Briefly: Clot-lysis buffer assay. It counts as biochemical. How it is done:
The assay method used for evaluating biological activity of the compounds according to the invention was Clot-lysis buffer assay.
Tested substance were added to the reaction mixture in 10% DMSO. Reaction was started by the addition of thrombin.
Measured according to the Clot-lysis buffer assay described above.
Turning to `O=c1cc([C@@H]2CCN[C@@H](c3cc(F)c(Cl)c(F)c3)C2)o[nH]1` (relative stereo) [Example 66, 5-(Trans-2-(4-chloro-3,5-difluorophenyl)piperidin-4-yl)isoxazol-3(2H)-one], half-maximal inhibition (IC50) was put at 7.5 µM. For the compound `O=c1cc([C@H]2CCN[C@H](c3ccccc3)C2)o[nH]1` [Example 78], the concentration for half-maximal inhibition (IC50) turned out to be 64.2 µM. `O=c1cc([C@@H]2CCN[C@@H](c3cc(F)c(F)c(F)c3)C2)o[nH]1` (relative stereo) [Example 62, 5-(Trans-2-(3,4,5-trifluorophenyl)piperidin-4-yl)isoxazol-3(2H)-one] came in with an IC50 of 7.1 µM. As for `O=c1cc([C@@H]2CCN[C@@H](c3ccc(Cl)c(F)c3)C2)o[nH]1` (relative stereo) [Example 50, 5-(Trans-2-(4-chloro-3-fluorophenyl)piperidin-4-yl)isoxazol-3(2H)-one], the IC50 turned out to be 5.3 µM. In turn, `O=c1cc([C@@H]2CCN[C@H](Cc3cc(F)cc(C(F)(F)F)c3)C2)o[nH]1` [Example 138, 5-((2S,4R)-2-(3-Fluoro-5-(trifluoromethyl)benzyl)piperidin-4-yl)isoxazol-3(2H)-one] yielded an IC50 of 123 µM. As for `O=c1cc([C@H]2CCN[C@@H](c3ccc(C(F)(F)F)nc3)C2)o[nH]1` [Example 40, 5-((2R,4S)-2-(6-(Trifluoromethyl)pyridin-3-yl)piperidin-4-yl)isoxazol-3(2H)-one], the figure is 1.5 µM; as for `O=c1cc([C@@H]2CCN[C@@H](Cc3cc(F)c(F)c(F)c3)C2)o[nH]1` (relative stereo) [Example 145, 5-(Trans-2-(3,4,5-trifluorobenzyl)piperidin-4-yl)isoxazol-3(2H)-one], 4.3 µM; as for `O=c1cc([C@H]2CCN[C@@H](Cc3cc(F)cc(C(F)(F)F)c3)C2)o[nH]1` [Example 137, 5-((2R,4S)-2-(3-Fluoro-5-(trifluoromethyl)benzyl)piperidin-4-yl)isoxazol-3(2H)-one], 1 µM.

The compound `CS(=O)(=O)c1ccc(C[C@H]2C[C@@H](c3cc(=O)[nH]o3)CCN2)cc1` [Example 117, 5-((2R,4S)-2-(4-(Methylsulfonyl)benzyl)piperidin-4-yl)isoxazol-3(2H)-one] had a 50% inhibitory concentration (IC50) of 0.8 µM. The IC50 values of the last two compounds are within 1.5-fold of each other. As for `O=c1cc([C@@H]2CCN[C@@H](CCc3ccc(F)cc3)C2)o[nH]1` (relative stereo) [Example 94, 5-(Trans-2-(4-fluorophenethyl)piperidin-4-yl)isoxazol-3(2H)-one], the figure is 4.6 µM; as for `O=c1cc([C@H]2CCN[C@@H](Cc3cc(F)c(F)c(F)c3)C2)o[nH]1` [Example 143, 5-((2R,4S)-2-(3,4,5-Trifluorobenzyl)piperidin-4-yl)isoxazol-3(2H)-one], 0.9 µM. As for `O=c1cc([C@@H]2CCN[C@@H](Cc3cc(F)cc(F)c3)C2)o[nH]1` [Example 133, 5-((2R,4R)-2-(3,5-Difluorobenzyl)piperidin-4-yl)isoxazol-3(2H)-one], the figure is 120 µM; as for `O=c1cc([C@@H]2CCN[C@@H](Cc3ccccc3C(F)(F)F)C2)o[nH]1` (relative stereo) [Example 112, 5-(Trans-2-(2-(trifluoromethyl)benzyl)piperidin-4-yl)isoxazol-3(2H)-one], 5.5 µM. As for `O=c1cc([C@H]2CCN[C@@H](c3ccc(F)cc3Cl)C2)o[nH]1` [Example 47, 5-((2R,4S)-2-(2-Chloro-4-fluorophenyl)piperidin-4-yl)isoxazol-3(2H)-one], the figure is 1.4 µM; as for `O=c1cc([C@H]2CCN[C@@H](c3cc(F)c(Cl)c(F)c3)C2)o[nH]1` [Example 65, 5-((2R,4S)-2-(4-Chloro-3,5-difluorophenyl)piperidin-4-yl)isoxazol-3(2H)-one], 2.2 µM; as for `O=c1cc([C@H]2CCN[C@@H](c3cc(Cl)cc(Cl)c3)C2)o[nH]1` [Example 55, 5-((2R,4S)-2-(3,5-Dichlorophenyl)piperidin-4-yl)isoxazol-3(2H)-one], 0.6 µM. Regarding `O=c1cc([C@H]2CCN[C@@H](c3ccc(Cl)c(F)c3)C2)o[nH]1` [Example 49, 5-((2R,4S)-2-(4-Chloro-3-fluorophenyl)piperidin-4-yl)isoxazol-3(2H)-one], the IC50 was 2 µM. The value for `O=c1cc([C@@H]2CCN[C@@H](Cc3cc(F)cc(C(F)(F)F)c3)C2)o[nH]1` (relative stereo) [Example 139, 5-(Trans-2-(3-fluoro-5-(trifluoromethyl)benzyl)piperidin-4-yl)isoxazol-3(2H)-one] was 2.9 µM; that for `CS(=O)(=O)c1ccc(C2CC(c3cc(=O)[nH]o3)CCN2)cc1` (stereo not drawn) [Example 39, 5-((Trans-2-(4-(methylsulfonyl)phenyl)piperidin-4-yl)isoxazol-3(2H)-one] was 97.3 µM. Regarding `O=c1cc([C@@H]2CCN[C@H](c3cc(F)c(F)c(F)c3)C2)o[nH]1` [Example 61, 5-((2S,4R)-2-(3,4,5-Trifluorophenyl)piperidin-4-yl)isoxazol-3(2H)-one], the half-maximal inhibitory concentration (IC50) came out at 858 µM. Against the preceding compound, the IC50 is about 8.8-fold higher. Compound `O=c1cc([C@H]2CCN[C@@H](C3CCCCC3)C2)o[nH]1` [Example 79, 5-((2R,4S)-2-Cyclohexylpiperidin-4-yl)isoxazol-3(2H)-one] returned a half-inhibitory concentration (IC50) of 3.3 µM. This IC50 lies about 260-fold lower than the previous one.

Consider `O=c1cc([C@H]2CCN[C@@H](c3ccccc3)C2)o[nH]1` [Example 77, 5-((2R,4S)-2-Phenylpiperidin-4-yl)isoxazol-3(2H)-one], for which the half-maximal inhibitory concentration (IC50) came to 8 µM. Regarding `CS(=O)(=O)c1ccc(C[C@H]2C[C@H](c3cc(=O)[nH]o3)CCN2)cc1` (relative stereo) [Example 119, 5-(Trans-2-(4-(methylsulfonyl)benzyl)piperidin-4-yl)isoxazol-3(2H)-one], half-maximal inhibition (IC50) required 10.7 µM. The value for `O=c1cc([C@H]2CCN[C@@H](c3ccc(Cl)cc3)C2)o[nH]1` [Example 27, 5-((2R,4S)-2-(4-Chlorophenyl)piperidin-4-yl)isoxazol-3(2H)-one] was 1.5 µM; that for `O=c1cc([C@@H]2CCN[C@@H](c3ccc(C(F)(F)F)nc3)C2)o[nH]1` (relative stereo) [Example 41, 5-(Trans-2-(6-(trifluoromethyl)pyridin-3-yl)piperidin-4-yl)isoxazol-3(2H)-one] was 40.9 µM; that for `O=c1cc([C@H]2CCN[C@@H](COC3CCCCC3)C2)o[nH]1` [Example 84, 5-((2R,4S)-2-(Cyclohexyloxymethyl)piperidin-4-yl)isoxazol-3(2H)-one] was 1.7 µM.

`Cc1cc([C@H]2C[C@H](c3cc(=O)[nH]o3)CCN2)ccc1C(F)(F)F` (relative stereo) [Example 69, 5-(Trans-2-(3-methyl-4-(trifluoromethyl)phenyl)piperidin-4-yl)isoxazol-3(2H)-one]: the IC50 was determined as 92.5 µM. The value for `O=c1cc([C@@H]2CCN[C@@H](CC3CCC(F)(F)CC3)C2)o[nH]1` (relative stereo) [Example 91, 5-(Trans-2-((4,4-difluorocyclohexyl)methyl)piperidin-4-yl)isoxazol-3(2H)-one] was 5.9 µM; that for `CS(=O)(=O)c1ccc([C@H]2C[C@@H](c3cc(=O)[nH]o3)CCN2)cc1` [Example 38, 5-((2R,4S)-2-(4-(Methylsulfonyl)phenyl)piperidin-4-yl)isoxazol-3(2H)-one] was 1.5 µM. Consider `O=c1cc([C@H]2CCN[C@@H](c3ccc(F)cc3F)C2)o[nH]1` [Example 44, 5-((2R,4S)-2-(2,4-Difluorophenyl)piperidin-4-yl)isoxazol-3(2H)-one], for which the IC50 is 2.3 µM. This IC50 lies about 1.5-fold higher than the previous one. The compound `O=c1cc([C@H]2CCN[C@@H](CCc3ccc(F)cc3)C2)o[nH]1` [Example 92, 5-((2S,4S)-2-(4-Fluorophenethyl)piperidin-4-yl)isoxazol-3(2H)-one] displayed an IC50 of 1.1 µM.

As for `O=c1cc([C@@H]2CCN[C@H](c3ccc(C(F)(F)F)cc3)C2)o[nH]1` [Example 34, 5-((2S,4R)-2-(4-(Trifluoromethyl)phenyl)piperidin-4-yl)isoxazol-3(2H)-one], the 50% inhibitory concentration (IC50) came to 150 µM. As for `O=c1cc([C@@H]2CCN[C@@H](C(F)F)C2)o[nH]1` (relative stereo) [Example 88, 5-(Trans-2-(difluoromethyl)piperidin-4-yl)isoxazol-3(2H)-one], the figure is 31.2 µM; as for `O=c1cc([C@@H]2CCN[C@@H](c3ccc(OC(F)(F)F)cc3F)C2)o[nH]1` (relative stereo) [Example 59, 5-(Trans-2-(2-fluoro-4-(trifluoromethoxy)phenyl)piperidin-4-yl)isoxazol-3(2H)-one], 70.7 µM. As for `CC(C)(C)c1cccc([C@H]2C[C@@H](c3cc(=O)[nH]o3)CCN2)c1` [Example 36, 5-((2R,4S)-2-(3-tert-Butylphenyl)piperidin-4-yl)isoxazol-3(2H)-one], the figure is 1.9 µM. As for `CC(C)(C[C@H]1C[C@@H](c2cc(=O)[nH]o2)CCN1)c1ccccc1` [Example 19, 5-((2R,4S)-2-(2-Methyl-2-phenylpropyl)piperidin-4-yl)isoxazol-3(2H)-one], the figure is 1.6 µM; as for `O=c1cc([C@H]2CCN[C@H](Cc3ccc(C(F)(F)F)cc3)C2)o[nH]1` [Example 105, 5-((2S,4S)-2-(4-(Trifluoromethyl)benzyl)piperidin-4-yl)isoxazol-3(2H)-one], 7.2 µM. On to `O=c1cc([C@@H]2CCN[C@H](c3cccc(C(F)(F)F)c3)C2)o[nH]1` [Example 31, 5-((2S,4R)-2-(3-(Trifluoromethyl)phenyl)piperidin-4-yl)isoxazol-3(2H)-one], for which the concentration for half-maximal inhibition (IC50) worked out at 33.1 µM.

The compound `O=c1cc([C@@H]2CCN[C@H](Cc3cc(F)c(F)c(F)c3)C2)o[nH]1` [Example 144, 5-((2S,4R)-2-(3,4,5-Trifluorobenzyl)piperidin-4-yl)isoxazol-3(2H)-one] had a concentration for half-maximal inhibition (IC50) of 88.2 µM. This IC50 is about 2.7-fold higher than that of the compound before. For the compound `O=c1cc([C@H]2CCN[C@H](c3cc(F)c(F)cc3F)C2)o[nH]1` [Example 64, 5-((2S,4S)-2-(2,4,5-Trifluorophenyl)piperidin-4-yl)isoxazol-3(2H)-one], the midpoint of inhibition, the IC50, lay at 31.4 µM.
